Assay [1] has as its system HepG2. The experiment in a line: cells. Conditions: Homo sapiens, HepG2, 24 h.
Description: Antiproliferative activity against human HepG2 cells after 24 hrs by MTT assay
For assay [2], the system named is HepG2. Description: cells. Conditions: Homo sapiens, HepG2, light or radiation study.
Description: Phototoxicity against human HepG2 cells assessed as reduction in cell viability pretreated for 2 hrs followed by 8 Gy gamma irradiation for 17.73 mins measured after 48 hrs by MTT assay

`CCOC(=O)c1ccc(N/C=C/C(=O)c2cccc(NC(=S)Nc3ccc(S(=O)(=O)Nc4ccccn4)cc3)c2)cc1`: the IC50 with HepG2 [1] was 1500 nM.
For the compound `Cc1ccc(C(=O)O)c(N/C=C/C(=O)c2ccc(NC(=S)Nc3ccc(S(=O)(=O)Nc4ccccn4)cc3)cc2)c1`, the figures for the IC50 in the assay with HepG2 [2] and in the assay on HepG2 [1] were 300 nM and 580 nM, respectively.
On to `O=C(/C=C/Nc1ccc(F)cc1)c1ccc(NC(=S)Nc2ccc(S(=O)(=O)Nc3ccccn3)cc2)cc1`, for which the IC50 in the assay with HepG2 [2] came to 230 nM; in the assay with HepG2 [1], 420 nM.
`CCOC(=O)N/C=C/C(=O)c1ccc(NC(=S)Nc2ccc(S(=O)(=O)Nc3ccccn3)cc2)cc1`: the IC50 with HepG2 [2] worked out at 70 nM; in the assay on HepG2 [1], 120 nM.
`Cc1c(N/C=C/C(=O)c2ccc(NC(=S)Nc3ccc(S(=O)(=O)Nc4ccccn4)cc3)cc2)c(=O)n(-c2ccccc2)n1C` yielded a 50% inhibitory concentration (IC50) with HepG2 [1] of 8000 nM.
The same measure, in the same setting: the result for `O=C(/C=C/Nc1ccccc1O)c1cccc(NC(=S)Nc2ccc(S(=O)(=O)Nc3ccccn3)cc2)c1` reads 2900 nM; that for `O=C(/C=C/NCc1ccccc1)c1ccc(NC(=S)Nc2ccc(S(=O)(=O)Nc3ccccn3)cc2)cc1`, 2300 nM; that for `O=S(=O)(Nc1ccccn1)c1ccc(N=C=S)cc1`, 5500 nM.
Compound `O=C(/C=C/Nc1ccccn1)c1ccc(NC(=S)Nc2ccc(S(=O)(=O)Nc3ccccn3)cc2)cc1` yielded an IC50 in the assay on HepG2 [1] of 3100 nM. This IC50 is about 1.8-fold lower than that of the compound before.
On the same count and under the same terms, the result for `O=C(/C=C/Nc1ccccn1)c1cccc(NC(=S)Nc2ccc(S(=O)(=O)Nc3ccccn3)cc2)c1` reads 4700 nM.
Consider `CCOC(=O)c1ccc(N/C=C/C(=O)c2ccc(NC(=S)Nc3ccc(S(=O)(=O)Nc4ccccn4)cc3)cc2)cc1`, for which the IC50 in the assay with HepG2 [2] amounted to 390 nM; with HepG2 [1] it was 660 nM.
In the assay with HepG2 [1], `O=C(/C=C/Nc1ccccc1)c1cccc(NC(=S)Nc2ccc(S(=O)(=O)Nc3ccccn3)cc2)c1` gave a 50% inhibitory concentration (IC50) of 4700 nM.
With `COC(=O)/C=C(/C)N/C=C/C(=O)c1ccc(NC(=S)Nc2ccc(S(=O)(=O)Nc3ccccn3)cc2)cc1`, the IC50 in the assay on HepG2 [2] amounted to 160 nM; with HepG2 [1] it was 290 nM.
Take `COC(=O)/C=C(/C)N/C=C/C(=O)c1cccc(NC(=S)Nc2ccc(S(=O)(=O)Nc3ccccn3)cc2)c1`: the IC50 in the assay on HepG2 [1] was 1500 nM.
The compound `Cc1c(N/C=C/C(=O)c2cccc(NC(=S)Nc3ccc(S(=O)(=O)Nc4ccccn4)cc3)c2)c(=O)n(-c2ccccc2)n1C` displayed a half-maximal inhibitory concentration (IC50) with HepG2 [1] of 11400 nM.
The compound `CNC(=O)c1cc(Oc2ccc(NC(=O)Nc3ccc(Cl)c(C(F)(F)F)c3)cc2)ccn1` [SORAFENIB] showed an IC50 in the assay on HepG2 [1] of 1060 nM.
Same read-out and setting: the result for `CC(=O)c1ccc(NC(=S)Nc2ccc(S(=O)(=O)Nc3ccccn3)cc2)cc1` reads 6900 nM.
`COC(=O)c1c(N/C=C/C(=O)c2ccc(NC(=S)Nc3ccc(S(=O)(=O)Nc4ccccn4)cc3)cc2)sc(C)c1C` registered an IC50 in the assay on HepG2 [1] of 6200 nM.
In the case of `COC(=O)c1c(N/C=C/C(=O)c2cccc(NC(=S)Nc3ccc(S(=O)(=O)Nc4ccccn4)cc3)c2)sc(C)c1C`, the midpoint of inhibition with HepG2 [1], the IC50, lay at 10800 nM. Against the preceding compound, the IC50 is about 1.7-fold higher.
On to `O=C(/C=C/Nc1ccccc1Cl)c1ccc(NC(=S)Nc2ccc(S(=O)(=O)Nc3ccccn3)cc2)cc1`, for which the IC50 with HepG2 [2] came to 250 nM; in the assay with HepG2 [1], 440 nM.
Consider `CN(C)/C=C/C(=O)c1ccc(NC(=S)Nc2ccc(S(=O)(=O)Nc3ccccn3)cc2)cc1`, for which the IC50 in the assay with HepG2 [1] turned out to be 3500 nM.
In the assay with HepG2 [1], `O=C(/C=C/Nc1ccccc1Cl)c1cccc(NC(=S)Nc2ccc(S(=O)(=O)Nc3ccccn3)cc2)c1` displayed an IC50 of 500 nM.
On to `CC(=O)c1cccc(NC(=S)Nc2ccc(S(=O)(=O)Nc3ccccn3)cc2)c1`, for which the midpoint of inhibition in the assay with HepG2 [1], the IC50, lay at 5000 nM.
Take `CCOC(=O)N/C=C/C(=O)c1cccc(NC(=S)Nc2ccc(S(=O)(=O)Nc3ccccn3)cc2)c1`: half-maximal inhibition with HepG2 [1] (IC50) required 1900 nM.
On to `O=C(/C=C/NCc1ccccc1)c1cccc(NC(=S)Nc2ccc(S(=O)(=O)Nc3ccccn3)cc2)c1`, for which the 50% inhibitory concentration (IC50) in the assay with HepG2 [1] was found to be 2500 nM.
Same read-out and setting: the result for `CN(C)/C=C/C(=O)c1cccc(NC(=S)Nc2ccc(S(=O)(=O)Nc3ccccn3)cc2)c1` reads 5500 nM.
On to `O=C(/C=C/Nc1ccccc1)c1ccc(NC(=S)Nc2ccc(S(=O)(=O)Nc3ccccn3)cc2)cc1`, for which the IC50 with HepG2 [1] was 3900 nM.
Same read-out and setting: the result for `Cc1ccc(N/C=C/C(=O)c2cccc(NC(=S)Nc3ccc(S(=O)(=O)Nc4ccccn4)cc3)c2)c(C(=O)O)c1` reads 1600 nM.
On to `O=C(/C=C/Nc1ccc(F)cc1)c1cccc(NC(=S)Nc2ccc(S(=O)(=O)Nc3ccccn3)cc2)c1`, for which 1200 nM corresponded to half-maximal inhibition in the assay with HepG2 [1] (IC50).
For the compound `O=C(/C=C/Nc1ccccc1O)c1ccc(NC(=S)Nc2ccc(S(=O)(=O)Nc3ccccn3)cc2)cc1`, the IC50 in the assay on HepG2 [1] was 1400 nM.
